US9051310B2, “Nicotinamide derivative or salt thereof” (FUJIFILM Corporation, priority 2011, dated 2015)

Key:
[1] = molecular target: T1, glutathione S-transferase (GST)-linked full-length human Syk protein (Homo sapiens, UniProt P43405); assay: Syk enzyme assay; type: biochemical; details: 0.83 nM Syk, time-resolved fluorescence; read-out: IC50 of Syk-inhibitory activity
T1 construct: glutathione S-transferase (GST)-linked full-length human Syk protein; purchased Carna Biosciences; host or cells: Baculovirus expression system
In short: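 Phosphotyrosine on a biotin-peptide substrate (0.5 μM) was read by time-resolved fluorescence at 615 and 665 nm with Eu-anti-pTyr antibody and APC-streptavidin after 1 h EDTA stop.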

[2] = tested on: THP-1 cells (TNFα secretion on human IgG-coated plate); assay: TNFα generation assay; type: cell-based; details: IFN-γ differentiated THP-1 cells, 7 hours, AlphaLISA, read-out: IC50 of TNFα generation inhibitory activity
In short: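 THP-1 cells were differentiated with 10 ng/ml IFN-γ for 2 days, then preincubated with compound for 30 min at room temperature. They were then plated at 5×10^4 cells/well on plates coated with human IgG (10 μg/ml). TNFα secreted over 7 h of culture was quantified by AlphaLISA.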

[3] = tested on: THP-1 cells (phagocytosis of opsonized Escherichia coli); assay: Antibody-dependent phagocytosis assay; type: cell-based; details: Homo sapiens; IFNγ differentiated THP-1 cells, opsonized pHrodo Escherichia coli, 3 hours; read-out: IC50 upon phagocytosis inhibition
In short: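 THP-1 cells were differentiated to macrophage-like cells with 10 ng/ml IFNγ for 2 days, then treated with test compound for 30 min at room temperature. pHrodo-labeled E. coli opsonized with anti-E. coli antibody were added for 3 h at 37° C. Phagocytosis by viable (Calcein AM-positive) cells was quantified by imaging.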

Structure (SMILES)	IC50 [1] [nM]	IC50 [2] [nM]	IC50 [3] [nM]
COc1ncc(Nc2nc(N[C@H](CC(C)C)[C@H](C)N)c(F)cc2C(N)=O)cc1F [Example 2-66, 6-(((2S,3R)-2-amino-5-methylhexan-3-yl)amino)-5-fluoro-2-((5-fluoro-6-methoxypyridin-3-yl)amino)nicotinamide]	10 to 50	130 to 200	< 1000
CCC[C@@H](Nc1nc(Nc2ccc3c(c2)c(OC)nn3CCOC)c(C(N)=O)cc1F)[C@H](C)N [Example 2-126, 6-(((2S,3R)-2-aminohexan-3-yl)amino)-5-fluoro-2-((3-methoxy-1-(2-methoxyethyl)-1H-indazol-5-yl)amino)nicotinamide]	< 10	65 to 130	< 1000
COCCn1nc(OC)c2cc(Nc3nc(N[C@H](CC(C)C)[C@H](C)N)c(F)cc3C(N)=O)ccc21 [Example 2-127, 6-(((2S,3R)-2-amino-5-methylhexan-3-yl)amino)-5-fluoro-2-((3-methoxy-1-(2-methoxyethyl)-1H-indazol-5-yl)amino)nicotinamide]	< 10	130 to 200	< 1000
COCCn1nc(C)c2cc(Nc3nc(N[C@H](COC)[C@H](C)N)c(F)cc3C(N)=O)ccc21 [Example 2-135, 6-(((2S,3S)-3-amino-1-methoxybutan-2-yl)amino)-5-fluoro-2-((1-(2-methoxyethyl)-3-methyl-1H-indazol-5-yl)amino)nicotinamide]	10 to 50	130 to 200	1000 to 3000
CC[C@H](N)[C@@H](C)Nc1nc(Nc2ccc3c(c2)c(C)nn3CCOC)c(C(N)=O)cc1F [Example 2-136, 6-(((2R,3S)-3-aminopentan-2-yl)amino)-5-fluoro-2-((1-(2-methoxyethyl)-3-methyl-1H-indazol-5-yl)amino)nicotinamide]	10 to 50	130 to 200	1000 to 3000
COc1ncc(Nc2nc(N[C@H](C3CC3)[C@H](C)N)c(F)cc2C(N)=O)cc1-n1ccnn1 [Example 2-162, 6-(((1R,2S)-2-amino-1-cyclopropylpropyl)amino)-5-fluoro-2-((6-methoxy-5-(1H-1,2,3-triazol-1-yl)pyridin-3-yl)amino)nicotinamide]	10 to 50	130 to 200	1000 to 3000
CC[C@@H](Nc1nc(Nc2ccc3c(c2)c(OC(F)F)nn3C)c(C(N)=O)cc1F)[C@H](C)N [Example 2-170, 6-(((2S,3R)-2-aminopentan-3-yl)amino)-2-((3-(difluoromethoxy)-1-methyl-1H-indazol-5-yl)amino)-5-fluoronicotinamide]	< 10	130 to 200	1000 to 3000
Cc1ncc(Nc2nc(N[C@@H]3CCOC[C@@H]3N)c(F)cc2C(N)=O)cc1-n1nccn1 [Example 2-214, 6-(((3R,4R)-3-aminotetrahydro-2H-pyran-4-yl)amino)-5-fluoro-2-((6-methyl-5-(2H-1,2,3-triazol-2-yl)pyridin-3-yl)amino)nicotinamide]	< 10	65 to 130	1000 to 3000
COc1ncc(Nc2nc(N[C@@H]3CCOC[C@@H]3N)c(F)cc2C(N)=O)cc1-n1nccn1 [Example 2-216, 6-(((3R,4R)-3-aminotetrahydro-2H-pyran-4-yl)amino)-5-fluoro-2-((6-methoxy-5-(2H-1,2,3-triazol-2-yl)pyridin-3-yl)amino)nicotinamide]	10 to 50	130 to 200	1000 to 3000
Cc1cncc(Nc2nc(N[C@@H]3CCOC[C@@H]3N)c(F)cc2C(N)=O)c1 [Example 2-218, 6-(((3R,4R)-3-aminotetrahydro-2H-pyran-4-yl)amino)-5-fluoro-2-((5-methylpyridin-3-yl)amino)nicotinamide]	10 to 50	65 to 130	1000 to 3000
Cc1ncc(Nc2nc(N[C@H](C3CCC3)[C@H](C)N)c(F)cc2C(N)=O)cc1F [Example 2-221, 6-(((1R,2S)-2-amino-1-cyclobutylpropyl)amino)-5-fluoro-2-((5-fluoro-6-methylpyridin-3-yl)amino)nicotinamide]	< 10	130 to 200	< 1000
Cc1ncc(Nc2nc(N[C@H](CC(C)C)[C@H](C)N)c(F)cc2C(N)=O)cc1F [Example 2-224, 6-(((2S,3R)-2-amino-5-methylhexan-3-yl)amino)-5-fluoro-2-((5-fluoro-6-methylpyridin-3-yl)amino)nicotinamide]	< 10	130 to 200	1000 to 3000
CC(C)C[C@@H](Nc1nc(Nc2ccnc(N3CCOCC3)c2F)c(C(N)=O)cc1F)[C@H](C)N [Example 2-235, 6-(((2S,3R)-2-amino-5-methylhexan-3-yl)amino)-5-fluoro-2-((3-fluoro-2-morpholinopyridin-4-yl)amino)nicotinamide]	< 10	65 to 130	< 1000
CC[C@H](N)[C@@H](C)Nc1nc(Nc2cnc(C)c(F)c2)c(C(N)=O)cc1F [Example 2-270, 6-(((2R,3S)-3-aminopentan-2-yl)amino)-5-fluoro-2-((5-fluoro-6-methylpyridin-3-yl)amino)nicotinamide]	10 to 50	65 to 130	1000 to 3000
Cc1ncc(Nc2nc(N[C@H](c3ccc(F)cc3)[C@H](C)N)c(F)cc2C(N)=O)cc1F [Example 2-272, 6-(((1R,2S)-2-amino-1-(4-fluorophenyl)propyl)amino)-5-fluoro-2-((5-fluoro-6-methylpyridin-3-yl)amino)nicotinamide]	10 to 50	130 to 200	< 1000
CNc1ncc(Nc2nc(N[C@H](C3CCC3)[C@H](C)N)c(F)cc2C(N)=O)cc1F [Example 2-275, 6-(((1R,2S)-2-amino-1-cyclobutylpropyl)amino)-5-fluoro-2-((5-fluoro-6-(methylamino)pyridin-3-yl)amino)nicotinamide]	10 to 50	130 to 200	1000 to 3000

The remaining lines, values ahead:

IC50 [1] [nM]	IC50 [2] [nM]	IC50 [3] [nM]	Structure (SMILES)
< 10	65 to 130	< 1000	Cc1cccc(Nc2nc(N[C@H](C3CC3)[C@H](C)N)c(F)cc2C(N)=O)c1 [Example 2-44, 6-(((1R,2S)-2-amino-1-cyclopropylpropyl)amino)-5-fluoro-2-(m-tolylamino)nicotinamide]
< 10	130 to 200	< 1000	CCn1nc(OC)c2cc(Nc3nc(N[C@H](CC(C)C)[C@H](C)N)c(F)cc3C(N)=O)ccc21 [Example 2-51, 6-(((2S,3R)-2-amino-5-methylhexan-3-yl)amino)-2-((1-ethyl-3-methoxy-1H-indazol-5-yl)amino)-5-fluoronicotinamide]
< 10	130 to 200	< 1000	CC[C@@H](Nc1nc(Nc2ccc3c(c2)c(OC)nn3CC)c(C(N)=O)cc1F)[C@H](C)N [Example 2-52, 6-(((2S,3R)-2-aminopentan-3-yl)amino)-2-((1-ethyl-3-methoxy-1H-indazol-5-yl)amino)-5-fluoronicotinamide]
< 10	130 to 200	1000 to 3000	CC(C)C[C@@H](Nc1nc(Nc2cncc(-n3cccn3)c2)c(C(N)=O)cc1F)[C@H](C)N [Example 2-70, 2-((5-(1H-pyrazol-1-yl)pyridin-3-yl)amino)-6-(((2S,3R)-2-amino-5-methylhexan-3-yl)amino)-5-fluoronicotinamide]
< 10	65 to 130	< 1000	COc1nn(CC(F)F)c2ccc(Nc3nc(N[C@H](C4CC4)[C@H](C)N)c(F)cc3C(N)=O)cc12 [Example 2-74, 6-(((1R,2S)-2-amino-1-cyclopropylpropyl)amino)-2-((1-(2,2-difluoroethyl)-3-methoxy-1H-indazol-5-yl)amino)-5-fluoronicotinamide]
< 10	130 to 200	< 1000	CCC[C@@H](Nc1nc(Nc2cccc3c2cnn3CC)c(C(N)=O)cc1F)[C@H](C)N [Example 2-96, 6-(((2S,3R)-2-aminohexan-3-yl)amino)-2-((1-ethyl-1H-indazol-4-yl)amino)-5-fluoronicotinamide]
< 10	130 to 200	< 1000	CCn1ncc2c(Nc3nc(N[C@H](C4CCC4)[C@H](C)N)c(F)cc3C(N)=O)cccc21 [Example 2-98, 6-(((1R,2S)-2-amino-1-cyclobutylpropyl)amino)-2-((1-ethyl-1H-indazol-4-yl)amino)-5-fluoronicotinamide]
< 10	130 to 200	1000 to 3000	COc1ncc(Nc2nc(N[C@H](C3CCC3)[C@H](C)N)c(F)cc2C(N)=O)cc1-n1nccn1 [Example 2-114, 6-(((1R,2S)-2-amino-1-cyclobutylpropyl)amino)-5-fluoro-2-((6-methoxy-5-(2H-1,2,3-triazol-2-yl)pyridin-3-yl)amino)nicotinamide]
< 10	130 to 200	1000 to 3000	COC[C@@H](Nc1nc(Nc2ccc3c(c2)c(OC)nn3C)c(C(N)=O)cc1F)[C@H](C)N [Example 2-121, 6-(((2S,3S)-3-amino-1-methoxybutan-2-yl)amino)-5-fluoro-2-((3-methoxy-1-methyl-1H-indazol-5-yl)amino)nicotinamide]
